From paper PMC10672842, “Anti-Trypanosoma cruzi Activity, Mutagenicity, Hepatocytotoxicity and Nitroreductase Enzyme Evaluation of 3-Nitrotriazole, 2-Nitroimidazole and Triazole Derivatives” (Molecules, 2023)
Where two headings read alike, the source gives them in different places.

Experiments:
S. typhimurium TA100 = tested on: S. typhimurium TA100
Method: The compounds were tested in a reverse mutation assay preincubation protocol in the absence and presence of metabolic activation following standard protocols previously proposed by Maron and Ames. The histidine-dependent (his^−) strains TA98 and TA100 of Salmonella typhimurium were inoculated in 10 mL of Oxoid nutrient broth No. 2 containing 25 µg/mL ampicillin and incubated overnight (15–18 h) at 37 ± 1 °C on an orbital shaker (CT-712, Cientec, Belo Horizonte, MG, Brazil) at 150 rpm, obtaining a concentration of 1–2 × 10^9 cells/mL, confirmed by titration in nutrient agar plates. Briefly, 100 µL of stationary growth cultures of each strain were preincubated for 20 min on an orbital shaker (150 rpm) at 37 ± 1 °C, with 500 µL of 0.2 M phosphate buffer pH 7.4, or 500 µL of S9 mix 4% (Molecular Toxicology, Baltimore, MD, USA), and 100 µL of compound dilutions (0–5000 µM) or controls. DMSO 1% was used as a negative control. […] After incubation, 2 mL of top agar (0.7% agar, 0.5% NaCl, 0.05 mM L-histidine and D-biotin) at 45 ± 3 °C was added and gently mixed. The final mixture was poured on glucose minimal agar plates (1.5% agar, 10 g/L MgSO4·7H2O; 100 g/L of C6H8O7·H2O; 500 g/L K2HPO4; 175 g/L Na(NH4)HPO4·4H2O, 2% glucose) and incubated for 72 h at 37 ± 1 °C. The results were expressed as the mean of revertant colonies (His^+) per plate, standard deviation (SD) and mutagenicity induction fold (IF), calculated as the ratio between the number of colonies in the test group and the number of colonies in the negative control group. Mutagenic potency was calculated as the slope of the linear portion of the concentration–response function and expressed as revertants/µM. All assays were performed in triplicate and repeated at least two times. Statistical analyses were carried out in GraphPad Prism software (version 5.00, GraphPad Software, Boston, MA, USA).

[1] = tested on: T. cruzi (Tulahuen strain); assay: In vitro anti-T. cruzi evaluation in an intracellular model (trypomastigote and amastigote forms, L929 host cells, β-galactosidase readout); format: cell-based, Trypanosoma cruzi
Method: Derivatives 5–10 were evaluated in vitro against T. cruzi in an intracellular model on the trypomastigote and amastigote forms of the parasite of the Tulahuen strain [20]. This model is interesting because it mimics the life cycle of the parasite, as both clinically relevant forms are present in the environment. The mammalian host cells used were fibroblasts from L929 mice.
This assay was performed as previously described by Buckner et al. (1996) using T. cruzi (Tulahuen strain), which expresses the β-galactosidase gene of Escherichia coli. Infectious trypomastigote forms were obtained by culturing fibroblast monolayers of L929 mice in RPMI-1640 medium (pH 7.2–7.4) without phenol red (Gibco BRL), containing 10% fetal bovine serum and 2 mM glutamine. For the bioassay, 4000 L929 cells in 80 µL of supplemented medium were added to each well of a 96-well microtiter plate. After overnight incubation, 40,000 trypomastigotes in 20 µL were added to the cells and incubated for 2 h. […] The medium was then replaced with compound solutions at 1.0 µg/mL in fresh medium (200 µL), and the plate was incubated for 96 h at 37 °C. After this period, 50 µL of chlorophenol D-galactopyranoside red (500 µM) in 0.5% Nonidet P40 was added to each well, and the plate was incubated for 18 h at 37 °C. After this, the absorbance was measured at 570 nm. Controls with uninfected cells and infected cells treated with benznidazole were performed in parallel. The results are expressed as the percentage of T. cruzi growth inhibition in cells tested with compost compared to infected and untreated cells. The tests were performed in triplicate.

[2] = In vitro cytotoxicity of L929 cells (AlamarBlue); format: cell-based, mice; conditions: mouse, four days
Method: For this bioassay, 4000 mammalian cells in 200 µL of RPMI-1640 medium (pH 7.2–7.4) (Gibco BRL) plus 10% fetal bovine serum and 2 mM glutamine were added to each well of a 96-well microtiter plate, which was incubated for three days at 37 °C. […] After this period, 20 µL of AlamarBlue^TM was added to each well, and the plate was incubated for another 4–6 h. Then, the absorbance was measured at 570 nm. Controls with cells not treated and treated with benznidazole were performed in parallel, and triplicates were performed on the same plate. The results are expressed as the percent difference in the reduction between treated (CT) and untreated cells (UT) using the following equation:(1) 117.216Abs570 TC−80.586(Abs600 TC)/117.216Abs570 UT−80.586(Abs600 UT) × 100

O=[N+]([O-])c1ncn(CC(O)c2ccc(F)cc2F)n1 (centres unmarked) [Compound 8, 1-(2,4-Difluorophenyl)-2-(3-nitro-1H-1,2,4-triazol-1-yl)ethanol]
IF (induction factor) (S. typhimurium TA100; TA100, +S9, 0.5 µM): 1.2 | revertant His+ colonies, mean ± SD (S. typhimurium TA100; TA100, +S9, 0.5 µM): 129 ± 21 | IF (induction factor) (S. typhimurium TA100; TA100, +S9, 5 µM): 1.2 | revertant His+ colonies, mean ± SD (S. typhimurium TA100; TA100, +S9, 5 µM): 128 ± 6 | IF (induction factor) (S. typhimurium TA100; TA100, +S9, 50 µM): 1.4 | revertant His+ colonies, mean ± SD (S. typhimurium TA100; TA100, +S9, 50 µM): 150 ± 14 | IF (induction factor) (S. typhimurium TA100; TA100, +S9, 500 µM): 1.4 | revertant His+ colonies, mean ± SD (S. typhimurium TA100; TA100, +S9, 500 µM): 145 ± 8 | IF (induction factor) (S. typhimurium TA100; TA100, +S9, 5000 µM): 1.7 | revertant His+ colonies, mean ± SD (S. typhimurium TA100; TA100, +S9, 5000 µM): 183 ± 9 | Mutagenicity in the Ames test (verdict) (S. typhimurium TA100; TA100, absence or presence of metabolic activation): not mutagenic | IF (induction factor) (S. typhimurium TA100; TA100, −S9, 0.5 µM): 1.1 | revertant His+ colonies, mean ± SD (S. typhimurium TA100; TA100, −S9, 0.5 µM): 77 ± 5 | IF (induction factor) (S. typhimurium TA100; TA100, −S9, 5 µM): 1.1 | revertant His+ colonies, mean ± SD (S. typhimurium TA100; TA100, −S9, 5 µM): 77 ± 15 | IF (induction factor) (S. typhimurium TA100; TA100, −S9, 50 µM): 1.1 | revertant His+ colonies, mean ± SD (S. typhimurium TA100; TA100, −S9, 50 µM): 77 ± 13 | IF (induction factor) (S. typhimurium TA100; TA100, −S9, 500 µM): 1.3 | revertant His+ colonies, mean ± SD (S. typhimurium TA100; TA100, −S9, 500 µM): 91 ± 8 | IF (induction factor) (S. typhimurium TA100; TA100, −S9, 5000 µM): 1.5 | revertant His+ colonies, mean ± SD (S. typhimurium TA100; TA100, −S9, 5000 µM): 108 ± 10 | IC50 ([1]; Trypanosoma cruzi, TULAHUEN, L929, 96 h, Tulahuen strain, intracellular trypomastigote and amastigote forms in L929 fibroblasts, 96 h, read-out: IC50 T. cruzi): 0.39 ± 0.01 µM | times more potent against T. cruzi than 9 ([1]; ratio of IC50 T. cruzi to 2-nitroimidazole 9): approximately 8 | fold more potent against T. cruzi than BZN ([1]; ratio of IC50 T. cruzi to BZN): ~4 | times more potent against T. cruzi than 5 ([1]; ratio of IC50 T. cruzi to carbonyl counterpart 5): more than 4 | times more potent against T. cruzi than 10 ([1]; ratio of IC50 T. cruzi to triazole 10): more than 300 | fold more selective than BZN ([1]; ratio of selectivity index to BZN): 2 | SI ([1]; selectivity index, L929 cells vs T. cruzi): 3077 | CC50 at 4 days [2]: 1200 ± 0.01 µM | IF (induction factor) (S. typhimurium TA1535; TA1535, +S9, 0.5 µM): 1.0 | revertant His+ colonies, mean ± SD (S. typhimurium TA1535; TA1535, +S9, 0.5 µM): 11 ± 1 | IF (induction factor) (S. typhimurium TA1535; TA1535, +S9, 5 µM): 1.1 | revertant His+ colonies, mean ± SD (S. typhimurium TA1535; TA1535, +S9, 5 µM): 12 ± 4 | IF (induction factor) (S. typhimurium TA1535; TA1535, +S9, 50 µM): 1.3 | revertant His+ colonies, mean ± SD (S. typhimurium TA1535; TA1535, +S9, 50 µM): 14 ± 4 | IF (induction factor) (S. typhimurium TA1535; TA1535, +S9, 500 µM): 1.4 | revertant His+ colonies, mean ± SD (S. typhimurium TA1535; TA1535, +S9, 500 µM): 15 ± 5 | IF (induction factor) (S. typhimurium TA1535; TA1535, +S9, 5000 µM): 1.4 | revertant His+ colonies, mean ± SD (S. typhimurium TA1535; TA1535, +S9, 5000 µM): 15 ± 3 | Mutagenicity in the Ames test (verdict) (S. typhimurium TA1535; TA1535, absence or presence of metabolic activation): not mutagenic | IF (induction factor) (S. typhimurium TA1535; TA1535, −S9, 0.5 µM): 1.0 | revertant His+ colonies, mean ± SD (S. typhimurium TA1535; TA1535, −S9, 0.5 µM): 21 ± 2 | IF (induction factor) (S. typhimurium TA1535; TA1535, −S9, 5 µM): 1.0 | revertant His+ colonies, mean ± SD (S. typhimurium TA1535; TA1535, −S9, 5 µM): 26 ± 3 | IF (induction factor) (S. typhimurium TA1535; TA1535, −S9, 50 µM): 1.0 | revertant His+ colonies, mean ± SD (S. typhimurium TA1535; TA1535, −S9, 50 µM): 23 ± 6 | revertant His+ colonies, mean ± SD (S. typhimurium TA1535; TA1535, −S9, 500 µM): Cytotoxic
